Tests used:
[1] = tested on: wheat; assay: Test A preemergence; assay type: in vivo, Triticum aestivum; settings: preemergence, 125 g ai/ha, visual injury approx. 10 days after treatment
Outline: (§1)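 Visual injury ratings, 0 = no effect to 100 = complete control, taken about 10 days after treatment against untreated controls. Test chemicals, in a non-phytotoxic surfactant-containing solvent, were sprayed onto soil preemergence or onto one- to two-leaf plants (2–10 cm) postemergence, in loam–sand soil under greenhouse conditions.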

[2] = tested on: blackgrass; assay: Test C postemergence; assay type: in vivo, Alopecurus myosuroides
Outline: (§2)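 Herbicidal effect is expressed as percent visual control (0–100) judged against untreated plants 13 to 15 days after treatment in the greenhouse. Preemergence pots contained seeds in a soil–sand blend; postemergence plants, 2–18 cm tall, grew in peat-based planting medium.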

[3] = tested on: crabgrass, large; assay: Test C postemergence; assay type: in vivo, Digitaria sanguinalis
Outline: as §2

[4] = tested on: waterhemp; assay: Test C postemergence; assay type: in vivo, Amaranthus rudis; settings: postemergence
Outline: as §2

[5] = tested on: corn; assay: Test C preemergence; assay type: in vivo, Zea mays
Outline: as §2

[6] = tested on: johnsongrass; assay: Test C preemergence; assay type: in vivo, Sorghum halepense
Outline: as §2

[7] = tested on: foxtail, giant; assay: Test A postemergence; assay type: in vivo, Setaria faberii; settings: Postemergence
Outline: as §1

[8] = tested on: sedge, umbrella; assay: Test B flood; assay type: in vivo, Cyperus difformis; settings: 250 g ai/ha, visual rating on 0 to 100 scale (0 no effect, 100 complete control), 13 to 15 days
Outline: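 Plants were grown to the 2-leaf stage, then pots were flooded to 3 cm above the soil and compounds were applied directly into the paddy water. Water depth was held for the whole test; after 13 to 15 days in a greenhouse, injury was visually rated against untreated controls (0 = no effect, 100 = complete control).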

[9] = tested on: wheat; assay: Test C preemergence; assay type: in vivo, Triticum aestivum
Outline: as §2

[10] = tested on: ragweed; assay: Test C preemergence; assay type: in vivo, Ambrosia elation
Outline: as §2

[11] = tested on: velvetleaf; assay: Test A preemergence; assay type: in vivo, Abutilon theophrasti; settings: preemergence, 125 g ai/ha, visual injury approx. 10 days after treatment
Outline: as §1

[12] = tested on: foxtail, giant; assay: Test C postemergence; assay type: in vivo, Setaria faberii
Outline: as §2

[13] = tested on: crabgrass, large; assay: Test A preemergence; assay type: in vivo, Digitaria sanguinalis; settings: preemergence
Outline: as §1

[14] = Postemergence, 31 g ai/ha, visually evaluated after 13 to 15 days
[15] = postemergence, 62 g ai/ha, scale 0 to 100
[16] = postemergence, 250 g ai/ha, scale 0 to 100 (0 no effect, 100 complete control)
[17] = postemergence, 125 g ai/ha, scale 0 to 100, 0 no effect, 100 complete control
[18] = preemergence, 62 g ai/ha, scale 0 to 100 (0 no effect, 100 complete control), 13 to 15 days
[19] = preemergence, 125 g ai/ha, 13 to 15 days, scale 0 to 100, 0 = no effect, 100 = complete control
[20] = preemergence, 250 g ai/ha, scale 0 to 100, 0 is no effect, 100 is complete control
[21] = Preemergence, rate head not shown (block before 16 g ai/ha), scale 0 to 100

## CCc1cc(C(=O)NCC(F)(F)F)nn1Cc1ccnc(Br)c1 [Compound 224]
[1]
  Wheat plant response rating (0 to 100 scale): 30
[2]; [14]
  Plant response rating (scale of 0 to 100 where 0 is no effect and 100 is complete control), Blackgrass: 5
[2]; [15]
  Blackgrass plant response rating: 5
[2]; [16]
  Plant response rating, Blackgrass: 20
[2]; [17]
  Plant response rating, Blackgrass: 5
[3]; [14]
  Plant response rating (scale of 0 to 100 where 0 is no effect and 100 is complete control), Crabgrass, Large: 5
[3]; [15]
  Crabgrass, Large plant response rating: 5
[3]; [16]
  Plant response rating, Crabgrass, Large: 20
[3]; [17]
  Plant response rating, Crabgrass, Large: 5
[4]; 250 g ai/ha, scale 0 to 100 (0 no effect, 100 complete control)
  Plant response rating, Waterhemp: 45
[4]; scale 0 to 100
  Waterhemp plant response rating: 50
[5]; Preemergence, rate head not shown (block before 16 g ai/ha), scale 0 to 100, 100 is complete control
  Plant response rating, Corn: 0
[5]; [18]
  Corn plant response rating: 5
[5]; [19]
  Plant response rating, Corn: 15
[5]; [20]
  Corn plant response rating: 60
[6]; [21]
  Plant response rating, Johnsongrass: 15
[6]; [18]
  Johnsongrass plant response rating: 50
[6]; [19]
  Plant response rating, Johnsongrass: 60
[6]; [20]
  Johnsongrass plant response rating: 98
[7]; 125 g ai/ha, 0 to 100 scale, 0 no effect, 100 complete control
  Foxtail, Giant plant response rating: 90
[7]; 500 g ai/ha, 0 to 100 scale (0 no effect, 100 complete control)
  Foxtail, Giant plant response rating: 100
[8]
  Plant response rating, Sedge, Umbrella: 90
[9]; [21]
  Plant response rating, Wheat: 0
[9]; [18]
  Wheat plant response rating: 0
[9]; [19]
  Plant response rating, Wheat: 10
[9]; [20]
  Wheat plant response rating: 60
[10]; [21]
  Plant response rating, Ragweed: 85
[10]; [18]
  Ragweed plant response rating: 85
[10]; [19]
  Plant response rating, Ragweed: 95
[10]; [20]
  Ragweed plant response rating: 100
[11]
  Velvetleaf plant response rating (0 to 100 scale): 100
[12]; [14]
  Plant response rating (scale of 0 to 100 where 0 is no effect and 100 is complete control), Foxtail, Giant: 5
[12]; [15]
  Foxtail, Giant plant response rating: 5
[12]; [16]
  Plant response rating, Foxtail, Giant: 5
[12]; [17]
  Plant response rating, Foxtail, Giant: 5
[13]; 125 g ai/ha, visual injury approx. 10 days after treatment
  Crabgrass, Large plant response rating (0 to 100 scale): 100
[13]; 500 g ai/ha, visual injury after approx. 10 days, 0 to 100 scale (0 no effect, 100 complete control)
  Crabgrass, Large plant response rating: 100

Source: US20150105252A1, “SUBSTITUTED PYRAZOLES AS HERBICIDES” (E I DU PONT DE NEMOURS AND COMPANY, priority 2013, published 2015)
